Values quoted from earlier work, collected in publication PMC6959220, “Glycofullerenes as non-receptor tyrosine kinase inhibitors- towards better nanotherapeutics for pancreatic cancer treatment” (Scientific Reports, 2020).

System: NHDF
Parameters: method as in PMID 30562697

Q: Which “cytotoxic effects on a normal cell line” value does the source give for `Cc1nc(Nc2ncc(C(=O)Nc3c(C)cccc3Cl)s2)cc(N2CCN(CCO)CC2)n1` [Dasatinib, dasatinib] here?
A: cytotoxic effects
